Data: US20250034182A1, “PHOSPHOLIPID COMPOUNDS AND METHODS OF MAKING AND USING THE SAME” (priority 2021, published 2025)
Read-outs that look alike come from different tables or passages of the source.

Columns and labels:
[1] = tested on: HCV Replicon 1B; test: HCV Replicon 1B EC50 (Example Q); format: cell-based; details: Hepatitis C virus, 72 h, read-out: HCV Replicon 1B EC50 (nM) (per Ex. Q)
Method: Compounds were serially diluted in ten steps of 1:3 dilutions in 384-well plates. All serial dilutions were performed in four replicates per compound within the same 384-well plate. An HCV protease inhibitor ITMN-191 at […] was added as a control of 100% inhibition of HCV replication while puromycin at 10 mM was included as a control of 100% cytotoxicity. To each well of a black polystyrene 384-well plate (Greiner Bio-one, Monroe, NC), 90 μL of cell culture medium (without Geneticin) containing 2000 suspended HCV replicon cells was added with a Biotek μFlow workstation. For compound transfer into cell culture plates, 0.4 μL of compound solution from the compound serial dilution plate was transferred to the cell culture plate on a Biomek FX workstation. The DMSO concentration in the final assay wells was 0.44%. The plates were incubated for 3 days at 37° C. with 5% CO2 and 85% humidity. The HCV replicon assay was a multiplex assay, able to assess both cytotoxicity and antireplicon activity from the same well. The CC50 assay was performed first. The media in the 384-well cell culture plate was aspirated, and the wells were washed four times with 100 μL of PBS each, using a Biotek ELX405 plate washer. A volume of 50 μL of a solution containing 400 nM calcein AM (Anaspec, Fremont, CA) in 1×PBS was added to each well of the plate with a Biotek μFlow workstation. The plate was incubated for 30 min at room temperature before the fluorescence signal (excitation 490 nm, emission 520 nm) was measured with a Perkin-Elmer Envision plate reader. The EC50 assay was performed in the same wells as the CC50 assay. The calcein-PBS solution in the 384-well cell culture plate was aspirated with a Biotek ELX405 plate washer. A volume of 20 μL of Dual-Glo luciferase buffer (Promega, Madison, WI) was added to each well of the plate with a Biotek μFlow Workstation. The plate was incubated for 10 min at room temperature. A volume of 20 μL of a solution containing a 1:100 mixture of Dual-Glo Stop & Glo substrate (Promega, Madison, WI) and Dual-Glo Stop & Glo buffer (Promega, Madison, WI) was added to each well of the plate with a Biotek μFlow Workstation. The plate was then incubated at room temperature for 10 min before the luminescence signal was measured with a Perkin-Elmer Envision Plate Reader.

[2] = tested on: Respiratory syncytial virus recombinant with luciferase (RSV-Luc5) in NHBE cells; test: NHBE RSV-Luc5 384-well assay (EC50 RSVFLUC NHBE-384, Example U); format: cell-based; details: human respiratory syncytial virus, 72 h, read-out: RSV FLuc NHBE 384 EC50 (v2) (nM) (per Ex. U)
Procedure, shortened: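 Passage-2 NHBE cells (5,000/well) on pre-spotted compounds, 10-point 1:3 series, infected with RSV-Luc5 at MOI 1 and incubated 3 days at 37° C. Replication read by One-Glo luminescence, normalized to remdesivir (0%) and DMSO (100%); EC50 = concentration reducing replication by 50%, by non-linear regression.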

[3] = HCV replicon cells, 3 days, Dual-Glo luciferase

Row | SMILES | EC50 [1] [nM] | EC50 [2] [nM] | EC50 [1, 3] [nM]
1 | CCCCCCCCCCCCCCCCCCCC[C@@H](COP(=O)(O)OC[C@@]1(C#N)O[C@@H](c2ccc3c(N)ncnn23)[C@H](O)[C@@H]1O)OCc1cc(F)cc(C#N)c1 [Compound 70, ((2R,3S,4R)-5-(4-aminopyrrolo[2,1-f][1,2,4]triazin-7-yl)-2-cyano-3,4-dihydroxytetrahydrofuran-2-yl)methyl ((S)-2-((3-cyano-5-fluorobenzyl)oxy)docosyl) hydrogen phosphate] | 19600 | 165 | –
2 | CCCCCCCCCCCCCCCCCCOC[C@@H](COP(=O)(O)OC[C@@]1(C#N)O[C@@H](c2ccc3c(N)ncnn23)[C@H](O)[C@@H]1O)Oc1ccc(C#N)nc1 [Compound 72, ((2R,3S,4R,5S)-5-(4-aminopyrrolo[2,1-f][1,2,4]triazin-7-yl)-2-cyano-3,4-dihydroxytetrahydrofuran-2-yl)methyl ((S)-2-((6-cyanopyridin-3-yl)oxy)-3-(octadecyloxy)propyl) hydrogen phosphate] | 465 | 4 | –
3 | CCCCCCCCCCCCCCCCCCOC[C@H](COP(=O)(O)OC[C@@]1(C#N)O[C@@H](c2ccc3c(N)ncnn23)[C@H](O)[C@@H]1O)OCc1ccc(C#N)cc1OC [Compound 73, ((2R,3S,4R)-5-(4-aminopyrrolo[2,1-f][1,2,4]triazin-7-yl)-2-cyano-3,4-dihydroxytetrahydrofuran-2-yl)methyl ((R)-2-((4-cyano-2-methoxybenzyl)oxy)-3-(octadecyloxy)propyl) hydrogen phosphate] | – | 10 | 15900
4 | CCCCCCCCCCCCCCCCC[C@@H](COP(=O)(O)OC[C@@]1(C#N)O[C@@H](c2ccc3c(N)ncnn23)[C@H](O)[C@@H]1O)OCc1cc(F)cc(C#N)c1 [Compound 74, ((2R,3S,4R)-5-(4-aminopyrrolo[2,1-f][1,2,4]triazin-7-yl)-2-cyano-3,4-dihydroxytetrahydrofuran-2-yl)methyl ((S)-2-((3-cyano-5-fluorobenzyl)oxy)nonadecyl) hydrogen phosphate] | 26200 | 85 | –
5 | CCCCCCCCCCCCCCCC[C@H](COP(=O)(O)OC[C@@]1(C#N)O[C@@H](c2ccc3c(N)ncnn23)[C@H](O)[C@@H]1O)OCc1cc(F)cc(C#N)c1 [Compound 78, ((2R,3S,4R,5S)-5-(4-aminopyrrolo[2,1-f][1,2,4]triazin-7-yl)-2-cyano-3,4-dihydroxytetrahydrofuran-2-yl)methyl ((R)-2-((3-cyano-5-fluorobenzyl)oxy)octadecyl) hydrogen phosphate] | – | 31 | 27600
6 | CCCCCCCCCCCCCCCC[C@@H](COP(=O)(O)OC[C@@]1(C#N)O[C@@H](c2ccc3c(N)ncnn23)[C@H](O)[C@@H]1O)OCc1cc(F)cc(C#N)c1 [Compound 79, ((2R,3S,4R,5S)-5-(4-aminopyrrolo[2,1-f][1,2,4]triazin-7-yl)-2-cyano-3,4-dihydroxytetrahydrofuran-2-yl)methyl ((S)-2-((3-cyano-5-fluorobenzyl)oxy)octadecyl) hydrogen phosphate] | – | 19 | 24300
7 | CCCCCCCCCCCCCCC[C@H](COP(=O)(O)OC[C@@]1(C#N)O[C@@H](c2ccc3c(N)ncnn23)[C@H](O)[C@@H]1O)OCc1cc(F)cc(C#N)c1 [Compound 80, ((2R,3S,4R,5S)-5-(4-aminopyrrolo[2,1-f][1,2,4]triazin-7-yl)-2-cyano-3,4-dihydroxytetrahydrofuran-2-yl)methyl ((R)-2-((3-cyano-5-fluorobenzyl)oxy)heptadecyl) hydrogen phosphate] | – | 36 | 32400
8 | CCCCCCCCCCCCCCCCCC[C@H](COP(=O)(O)OC[C@@]1(C#N)O[C@@H](c2ccc3c(N)ncnn23)[C@H](O)[C@@H]1O)OCc1cc(Cl)cc(C#N)c1 [Compound 81, ((2R,3S,4R,5S)-5-(4-aminopyrrolo[2,1-f][1,2,4]triazin-7-yl)-2-cyano-3,4-dihydroxytetrahydrofuran-2-yl)methyl ((R)-2-((3-chloro-5-cyanobenzyl)oxy)icosyl) hydrogen phosphate] | – | 83 | 10700
9 | CCCCCCCCCCCCCCCCCCC[C@H](COP(=O)(O)OC[C@@]1(C#N)O[C@@H](c2ccc3c(N)ncnn23)[C@H](O)[C@@H]1O)OCc1cc(Cl)cc(C#N)c1 [Compound 82, ((2R,3S,4R,5S)-5-(4-aminopyrrolo[2,1-f][1,2,4]triazin-7-yl)-2-cyano-3,4-dihydroxytetrahydrofuran-2-yl)methyl ((R)-2-((3-chloro-5-cyanobenzyl)oxy)henicosyl) hydrogen phosphate] | 11300 | 147 | –
